The target in experiment [1] is T1, D2/D3 receptors (Macaca mulatta, UniProt F7CYH8). The conditions noted are these: for DBPND^peak / Peak Occ. θ^peak / BP^(0): putamen ROI, animal M1; for BP^(0): baseline [11C]raclopride binding potential. How it is done:
(§1) Two animals (male rhesus macaques: M1 (8 years) and M2 (6 years)) underwent PET/MR imaging. For each study, the animal was anesthetized, initially with 10 mg/kg ketamine and 0.5 mg/kg xylazene, and maintained with isoflurane (1%, mixed with oxygen) after intubation.
(§2) [^11C]Raclopride was injected using a bolus+infusion protocol. […] Boluses were administered by hand over a duration of 30 seconds, after which infusion at a rate of 0.01 ml/s was started with an automatic pump (Medrad Spectra Solaris). Specific activities at time of injection were 3.7±2.8 mCi/nmol. […] Experiments and repeated administration of pharmacological challenges in all NHPs were separated by at least 2 weeks, so that results were not influenced from prior history. […] Additionally, the D2 antagonist prochlorperazine was injected at doses 0.1 and 0.2 mg/kg in animal M2 to serve as a direct comparison to the agonists, and to investigate whether the temporal relationship between occupancy and function that was reported for the short-acting antagonist raclopride (10) was maintained for an antagonist with much longer duration of action.
(§3) Simultaneous PET and MR data were acquired on a prototype scanner that includes a BrainPET insert and a Tim Trio 3T MR scanner (Siemens AG, Healthcare Sector, Erlangen Germany). A custom-built tight-fitting PET compatible 8-channel NHP receive array (34) together with a vendor-supplied local circularly polarized transmit coil was used for MR imaging.
PET emission data were acquired in list-mode format for 100 min starting with radiotracer injection. Images were reconstructed with a 3D Poisson ordered-subset expectation maximization algorithm using prompt and variance-reduced random coincidence events. Normalization, scatter and attenuation sinograms (including attenuation of the radiofrequency coil) were included in the reconstruction (37). […] Framing intervals were 10×30 sec, followed by 1 min frames.
(§4) PET and MR data were registered to the Saleem-Logothetis stereotaxic space (38) with an affine transformation (12 degrees of freedom) using a multi-subject MRI template (39), in which standard regions of interest (ROI) were defined based on anatomy. Alignment of the EPI data used an affine transformation plus local distortion fields. After motion-correcting using AFNI software (40), and after spatially smoothing fMRI data with a 2.5 mm Gaussian kernel, statistical analysis was carried out using the general linear model (GLM). The temporal response to the drug injection was modeled with a gamma-variate function, in which the time-to-peak was adjusted to minimize the χ^2/DOF of the GLM fit to the data. […] Additionally, regressors that correspond to translations in three dimensions and were derived from motion correction were used in the GLM analysis. The resulting signal changes were then converted to percentage changes in CBV by standard methods (41).
PET kinetic modeling employed a general linear model formulation of the simplified reference tissue model (SRTM) (14), with cerebellum as the reference ROI, and the rate constant (k2) for cerebellum derived from the high-binding region putamen using a 2-parameter SRTM model (42).

The target of experiment [2] is T1, D2/D3 receptors. The conditions noted are these: for Peak CBV: putamen ROI, animal M1. The procedure: as §1, §2, §3
The phased array enabled 2-fold acceleration with GRAPPA (35) in the anterior-posterior direction. […] To improve fMRI detection power, ferumoxytol (Feraheme, AMAG Pharmaceuticals, Cambridge Mass.) was injected at 10 mg/kg prior to fMRI (36).
as §4

The test system of experiment [3] is D2/D3. As to conditions: reported (ref 19); cited from earlier work.
For experiment [4], the target named is T1, D2/D3 receptors. As to conditions: mean±std over doses; model fit to experimental data.
Protocol: The process of receptor desensitization and internalization can be considered in a dynamic occupancy model. In an example of a dynamic occupancy model, the following are assumed: • i. The externalization constant kext is very long, and is thus negligible for timescales <2 h. • ii. Once internalized, receptors can be bound with an affinity α by the PET radiotracer. […] The rate to convert desensitized to internalized receptors is negligible with respect to the relevant experimental timescales.
The concentrations of the free ligand and free DA can both be normalized to the baseline DA occupancy at time zero, such that f describes the fraction of free concentration (relative to baseline DA). The parameter θint describes the fraction of internalized receptors and kDI denotes the desensitization and internalization rate constant. The above equations, plus the measurement models for PET and fMRI are a full description of the RDI model employed in this study for simulation and parameter estimation.
The RDI model was used to generate a family of CBV curves for RDI rates in the range of 1 min to 30 min. An estimate of the RDI constant for each dataset was then achieved by minimizing the residual norm between the model and data after drug injection.
In experiment [5] the target is D3. As to conditions: cited from earlier work.
The target in experiment [6] is D2. As to conditions: cited from earlier work.

For orientation: pKd means the Kd on a negative log10 scale, so that one unit is a factor of ten.

Structures are written as SMILES. pKd: −log10 of the molar value. Like-named read-outs stand apart in the source and are kept apart here.

T1 sequence (F7CYH8 1-443): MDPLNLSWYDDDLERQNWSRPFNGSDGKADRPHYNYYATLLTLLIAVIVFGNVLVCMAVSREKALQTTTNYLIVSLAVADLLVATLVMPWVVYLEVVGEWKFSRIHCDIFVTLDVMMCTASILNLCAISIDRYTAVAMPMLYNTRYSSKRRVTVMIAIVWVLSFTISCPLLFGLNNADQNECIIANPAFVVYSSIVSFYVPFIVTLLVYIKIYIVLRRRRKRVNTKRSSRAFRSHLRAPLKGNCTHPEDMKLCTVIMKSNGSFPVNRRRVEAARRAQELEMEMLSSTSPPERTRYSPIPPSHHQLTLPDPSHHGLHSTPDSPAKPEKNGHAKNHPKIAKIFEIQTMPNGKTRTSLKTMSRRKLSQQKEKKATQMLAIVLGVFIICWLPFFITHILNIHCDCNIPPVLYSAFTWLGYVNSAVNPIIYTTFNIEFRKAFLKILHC

In the case of `CN1CCN(CCCN2c3ccccc3Sc3ccc(Cl)cc32)CC1` [prochlorperazine], the “occupancy at CBV peak magnitude” value in experiment [1] (animal M2) came to 88%. Moreover, the “CBV and occupancy timecourses compared” value in experiment [2] (animal M2, FIG. 4 graph (c)) was “CBV and occupancy timecourses were matched”. In addition, in experiment [2] (at 88% occupancy, animal M2), the “CBV response peak magnitude” value amounted to 14.4%.

In the case of `CCCN(CCC)CCc1cccc2c1CC(=O)N2` [ropinirole], the “time at which PET occupancy peaked” value in experiment [1] (animal M2, FIG. 4) is 17.8 min. Besides, the “DBPND^peak” value in experiment [1] (0.1 mg/kg) was 4.7; in experiment [1] (0.3 mg/kg), 2.9. The entries for the “Peak Occ. θ^peak” value in experiment [1] (0.1 mg/kg) and in experiment [1] (0.3 mg/kg) were 7% and 49%, respectively. The entries for the “BP^(0)” value in experiment [1] (0.1 mg/kg session) and in experiment [1] (0.3 mg/kg session) were 5.1 and 5.7, respectively. Further, the “potency compared to quinpirole” value in experiment [3] is reported as “about seven times less potent”. For the same molecule, the “CBV timecourse peak time after the injection” value was 4.0 min in experiment [2] (0.1 mg/kg, animal M2) and 3.4 min in experiment [2] (0.3 mg/kg, animal M2). Also, the “duration of CBV response in caudate” value in experiment [2] (0.1 mg/kg, animal M2) turned out to be 28.5 min; in experiment [2] (0.3 mg/kg, animal M2), 25.0 min. For the same molecule, in experiment [2] (animal M2, FIG. 4 comparison of agonists), the “CBV^peak signal” value is −8.5%. For the same molecule, the “Peak CBV” value is −6.6% in experiment [2] (0.1 mg/kg) and −9.7% in experiment [2] (0.3 mg/kg). In experiment [4], the “1/kDI, in vivo desensitization and internalization time constant” value is 8.5 ± 2.1 min. For the same molecule, the pKd in experiment [5] was 7.21; in experiment [6], 6.01.
